Among the data in ChEMBL document CHEMBL1157539, “Thousands of chemical starting points for antimalarial lead identification” (Nature, 2010) are XC50 values, retold here.

In the assay the test system is Plasmodium falciparum. Put plainly: GSK_TCMDC: Inhibition of Plasmodium falciparum 3D7 in whole erythrocytes, using parasite LDH activity as an index of growth. Type of assay: functional, organism-based. The settings on record: Plasmodium falciparum, 3D7.

Regarding `N#Cc1ccc(N[C@@H](CC2CCCCC2)C(=O)Nc2ccc(-c3ccccc3)cc2)c2ccccc12`, the XC50 is 0.597 µM.
To `COc1cc2nc(N3CCC(CNC(=O)/C=C/c4ccccc4F)CC3)nc(N)c2cc1OC` belongs 0.581 µM; to `O=C(/C=C/c1ccc(C(F)(F)F)cc1)NCCCCCN1CCCN(C(=O)Nc2ccc(Cl)c(Cl)c2)CC1`, 0.421 µM; to `O=C1Nc2cccc3c2C1(CCCCCN1CC=C(c2c[nH]c4ccccc24)CC1)CCC3` (configuration not stated), 0.74 µM.
With `N=C1NC(=O)C(=Cc2cn(-c3ccccc3)nc2-c2cccc(S(=O)(=O)N3CCCC3)c2)S1` the figure was 1.14 µM; with `FC(F)(F)COc1ccc2ccccc2c1CNCCCCCCNCc1c(OCC(F)(F)F)ccc2ccccc12`, 0.352 µM.
`O=C(Nc1ccccc1O)C1CCN(c2ncnc3cc(-c4ccc(F)cc4)sc23)CC1` returned an XC50 of 0.874 µM.
To `O=C(/C=C/c1ccc(Cl)c(Cl)c1)NCCCCCN1CC[C@H](NC(=O)/C=C/c2ccccc2)C1` belongs 1 µM; to `O=C(Nc1ccccc1)Nc1ccc(-c2cccc(-c3nc4cc(C(F)(F)F)ccc4[nH]3)c2)cc1`, 0.734 µM.
To `O=C(Nc1ccc(Cn2ncc(N3CCCNCC3)c(Cl)c2=O)cc1)Nc1ccc(SC(F)(F)F)cc1` belongs 0.529 µM; to `CS(=O)(=O)Nc1cccc(-c2cnc3[nH]cc(-c4ccc(C(=O)O)cc4)c3c2)c1`, 0.857 µM.
To `CCNC(=O)Nc1ccc(-c2cnc(N)c(-c3nc4ccc(OC)cc4[nH]3)c2)cc1` belongs 0.499 µM; to `Nc1ncc(-c2ccc3[nH]ccc3c2)c2ccc(-c3ccncc3)cc12`, 0.542 µM; to `CC(C)Cc1cn(-c2nc(C(=N)N)cs2)c2cc(Cl)ccc12`, 0.154 µM.
As to `CCN(CC)CCN(Cc1ccc(-c2ccc(C(F)(F)F)cc2)cc1)C(=O)Cn1c(/C=C/c2ccco2)nc(=O)c2ccccc21`, the XC50 turned out to be 0.87 µM.
To `CNc1ccc(CNCc2ccc(-c3ccc(-c4nc5cc(C(F)(F)F)ccc5[nH]4)cc3)cc2)cc1` belongs 0.167 µM.
Consider `N#Cc1cccc(/C=C/C(=O)NC2CCC(CCN3CCc4ccc(-c5cnccn5)cc4CC3)CC2)c1` (configuration not stated), for which the XC50 was found to be 0.773 µM.
With `Cc1[nH]c(C)c(-c2ccc(-c3cccc(Cl)c3)nc2)c(=O)c1Cl`, the XC50 was found to be 0.186 µM.
Turning to `N=C(N)Nc1nc(-c2ccc(NC(=N)N3CCC[C@H]3CN3CCCC3)cc2)cs1`, the XC50 worked out at 1.11 µM.
With `O=C(/C=C/c1ccc(-c2nc3ccc(Cl)cc3[nH]2)cc1)NCc1cccc(F)c1` the figure was 0.64 µM.
With `Cc1cccc2nc(-c3ccc(-c4cccc(CN5CCC(CCN6CCCCC6)CC5)c4)s3)[nH]c12` the figure was 0.14 µM; with `O=C(NCCCNc1ccnc2cc(Cl)ccc12)c1ccccc1F`, 0.315 µM.
To `CNc1ccc(CNCc2cccc(-c3ccc(-c4nc5cc(C(F)(F)F)ccc5[nH]4)cc3)c2)cc1` belongs 0.112 µM; to `CCOC(=O)c1cc(Cl)ccc1OCCCON1C(=N)N=C(N)NC1(C)C`, 0.0032 µM.
As for `CCN(CC)CCN(Cc1ccc(-c2ccc(C(F)(F)F)cc2)nc1)C(=O)Cn1cc(Cc2cnn(C)c2)c(=O)n2nc(-c3ccccc3)cc12`, the XC50 turned out to be 0.991 µM.
With `COc1ccc(Cl)cc1N1CCN(CCCNC(=O)c2ccc(-c3nc4cc(Cl)c(F)cc4[nH]3)s2)CC1` the figure was 0.314 µM.
Take `O=C(N[C@@H](Cc1cc(F)cc(F)c1)[C@H](O)CNCc1cccc(C(F)(F)F)c1)c1cc(C2CCCC2)cc(N2CCCC2=O)c1`: the XC50 stood at 0.803 µM.
In turn, `COc1ccc2nccc([C@@H](O)CN3CCC(NC(=O)C(c4ccsc4)N4CCN(c5ccccc5)CC4)CC3)c2c1` (some centres not stated) had an XC50 of 0.442 µM.
With `O=C(Nc1cccc(-c2nn3ccccc3c2-c2ccnc(Nc3cccc(-c4cnco4)c3)n2)c1)C1CCCCC1` the figure was 0.261 µM; with `O=C(Nc1ccc(C(=O)Oc2cccc3ccccc23)cc1)N[C@@H](Cc1ccc(O)cc1)C(=O)NC1CCN(Cc2ccc(O)cc2)C1` (some centres not stated), 0.906 µM.
To `CCC(=O)c1ccc(-c2ccc(=O)n(CC(=O)N(CCN(CC)CC)Cc3ccc(-c4ccc(C(F)(F)F)cc4)cc3)n2)cc1` belongs 0.715 µM; to `CCCCCCOc1ccc(C(=O)N[C@H]2CCN(CCCCCNC(=O)/C=C/c3ccc(Cl)c(Cl)c3)C2)cc1`, 0.695 µM; to `Cc1ccc2c(OCCN3CCC(Cc4cc5c(cc4F)OCC(=O)N5)CC3)cc(F)cc2n1`, 0.631 µM.
To `O=C(NC1CCC(N2CCCC(OCc3ccccc3)C2)CC1)c1cc2ccccc2[nH]1` (configuration not stated) belongs 1.21 µM; to `CC[C@H]1CN2CC[C@H]1C[C@H]2C(O)c1cc(OC)nc2ccccc12` (some centres not stated), 0.141 µM; to `COc1ccc2nccc([C@@H](O)CN3CCC(NCc4cc5c(Cl)cc(Cl)cc5[nH]4)CC3)c2c1`, 0.0585 µM.
The compound `Cc1nc(N)nc(N)c1OCc1cccc2ccccc12` showed an XC50 of 0.0727 µM.
With `O=C(Cc1cccs1)NCC(c1ccccc1Cl)c1c[nH]c2ccccc12` (configuration not stated), the XC50 came to 1.15 µM.
For `COc1cccc(-c2cc(C(=O)Nc3cc(Oc4ccc(O)cc4)cc([N+](=O)[O-])c3)on2)c1`, the XC50 is 1.05 µM.
For `CC(=O)Nc1nc(C(=O)Nc2ccc(-c3cccc(-c4nc5ccccc5[nH]4)c3)cc2)cs1`, the XC50 is 0.552 µM.
With `CC1(C)NC(N)=NC(=N)N1OCCCOc1cccc2ccccc12` the figure was 0.0032 µM; with `O=C(NCCc1ccccc1)N(Cc1ccccc1-c1cccc(CNCCc2ccccc2)c1)C1CCN(Cc2ccccc2)CC1`, 0.625 µM.
To `COc1ccccc1-n1ccnc1SCC(=O)Nc1cccc(C(F)(F)F)c1` belongs 0.16 µM; to `COc1cc2nccc(Nc3ccc4c(cnn4Cc4cccc(F)c4)c3)c2cc1OC`, 0.237 µM; to `COCCNCc1ccc(-c2ccc(CNC3CCN(Cc4ccccc4)CC3)cc2)cc1`, 0.669 µM.
With `O=C(Nc1ccnc(N2CC3CC2CN3Cc2cccc(O)c2)c1)c1ccc(F)cc1` (configuration not stated) the figure was 1.24 µM; with `O=C(NCCCCN1CCC(c2ccc3ccccc3c2O)CC1)c1ccc(NC(=O)c2ccc(Cl)cc2)cc1`, 1.01 µM; with `CCN(CC)Cc1cc(Nc2c3ccc(Cl)cc3nc3cccc(OC)c23)ccc1O`, 0.0334 µM.
`CCC(C)c1ccc(NC(=O)Nc2ccc(Cn3ncc(N4CCCNCC4)c(Cl)c3=O)cc2)cc1` (configuration not stated) came in with an XC50 of 1.03 µM.
With `Nc1ncc(-c2ccccc2)cc1/C=C/c1cccnc1` the figure was 1.12 µM.
With `CCC(CC)N1C(=O)C(c2ccccc2)(c2ccccc2)N=C1N` the figure was 0.805 µM; with `O=C(/C=C/c1ccc(C(F)(F)F)cc1)NCCCCCN1CCCN(C(=O)Nc2ccc(Cl)c(C(F)(F)F)c2)CC1`, 0.202 µM; with `Cc1cc(CN2CCC(N3CC(c4ccccc4)(c4ccccc4)OCC3=O)C2)ccc1O` (configuration not stated), 1.08 µM.
`CCCCNCc1cc(Cl)c2ccccc2c1O` displayed an XC50 of 0.457 µM.
With `CN(C)S(=O)(=O)c1ccc(N2C(=O)C3C(C2=O)C2(c4ccccc4)C(=O)C3(c3ccccc3)C(c3ccccc3)=C2c2ccccc2)cc1` (configuration not stated) the figure was 0.951 µM; with `O=C(NCC(c1ccc(C(F)(F)F)cc1)N1CCCC1)c1cc(-c2ccncc2)c(-c2cccc(O)c2)o1` (configuration not stated), 1.06 µM.
To `Cc1cc(OCCCN2CCCCC2C)ccc1NC(=O)COc1ccc(Cl)cc1C(=O)c1cc(Cl)cc(C#N)c1` (configuration not stated) belongs 0.981 µM; to `CC(=O)N(Cc1nc(-c2cc(Cl)c(Cl)s2)cs1)c1c(C)cccc1C`, 0.333 µM.
With `Cc1ccc2nc3ccccc3c(NCCN3CCN(C)CC3)c2c1` the figure was 0.587 µM; with `O=c1cc(NCCCNC2CCc3ccc(Cl)cc32)[nH]c2ccccc12` (configuration not stated), 0.862 µM.
As for `Fc1ccc2[nH]c(-c3ccc(-c4ccc(CN5CCC(CCN6CCCCC6)CC5)cc4)cc3)nc2c1`, the XC50 was found to be 0.129 µM.
With `C=CCOC(=O)N1CCC(CNCc2cccc(-c3ccc(-c4nc5cc(C(F)(F)F)ccc5[nH]4)cc3)c2)C1` (configuration not stated) the figure was 0.146 µM; with `CC(C)C1=C[C@H]2C[C@]3(C4OCCO4)[C@@H]4CC[C@@H](C)[C@H]4C[C@@]2(COCc2cccc(C#N)c2)[C@]13C(=O)OC(c1ccccc1)c1ccccc1`, 1.79 µM.
In the case of `Cc1[nH]c(C)c(-c2ccc(Oc3ccc(Cl)cc3)cc2)c(=O)c1Br`, the XC50 is 0.592 µM.
To `CC[C@H](C)CNC(=O)c1cccc(-c2ccc(CN3CCC(N4CCCC4)CC3)cc2)n1` belongs 0.787 µM.
On to `CC(C)(C)OC(=O)N(Cc1cc(-n2nnnc2C(F)(F)F)ccc1O)[C@H]1CCCN(C(=O)OC(C)(C)C)[C@H]1c1ccccc1`, for which the XC50 was 0.719 µM.
With `Cc1cc(NC(=O)c2cc(Br)ccc2Cl)n(-c2nc(C)c(C)c(=O)[nH]2)n1` the figure was 1.13 µM; with `O=c1ccc(-c2nc3cc(Cl)c(Cl)cc3n2Cc2ccc(Cl)cc2Cl)c[nH]1`, 1.11 µM; with `COC(=O)c1cc(OC)c(OC)cc1NC(=O)NC12CC3CC(CC(C3)C1)C2`, 0.879 µM.
Regarding `Cc1cccc2[nH]c(-c3cc(-c4cn[nH]c4)cnc3N)nc12`, the XC50 was 0.221 µM.
With `COc1ccc(C(=O)CCC(=O)N(Cc2ccc(-c3ccc(CNCCc4ccc(S(C)(=O)=O)cc4)cn3)cc2)Cc2ccc3c(c2)OCO3)cc1F` the figure was 0.943 µM.
To `CC[C@H](C)CNC(=O)c1cccc(-c2cccc(CNCC3CNCCCO3)c2)n1` (some centres not stated) belongs 1.08 µM; to `CCCCCCCCn1ccc(=N)cc1`, 0.84 µM.
The compound `CCOC(=O)C1=C(C)N=c2sc(=Cc3ccccc3O)c(=O)n2C1c1ccc(OC)c2ccccc12` (configuration not stated) returned an XC50 of 1.26 µM.
In turn, `CCCCCCCN1CC[C@@H](CCCc2ccnc3ccc(OCCC4CCNCC4)cc23)[C@@H](CC)C1` had an XC50 of 0.61 µM.
`CC(=O)Nc1ncc(C(=O)Nc2cccc(-c3cccc(-c4nc5cc(C(F)(F)F)ccc5[nH]4)c3)c2)s1` showed an XC50 of 0.185 µM.
Turning to `O=C(Nc1cccc(-c2ccc(-c3nc4cc(C(F)(F)F)ccc4[nH]3)cc2)c1)c1ccncc1`, the XC50 is 0.337 µM.
For the compound `CCNC(=O)Nc1cccc(-c2cccc(-c3nc4cc(C(F)(F)F)ccc4[nH]3)c2)c1`, the XC50 worked out at 0.678 µM.
To `Cc1cc(N[C@@H](Cc2ccccc2)C(=O)NCc2cccc(F)c2)nc(NCC2CCCCC2)n1` belongs 0.855 µM; to `CS(=O)(=O)c1ccc(CNCc2cccc(-c3cccc(-c4nc5cc(C(F)(F)F)ccc5[nH]4)c3)c2)cc1`, 0.182 µM; to `CCCC1N=C(N)N=C(N)N1c1ccc(C)c(C)c1` (configuration not stated), 0.0736 µM.
`COc1ccc2cc(CNCCCCCCNCc3ccc4cc(OC)ccc4c3)ccc2c1` registered an XC50 of 0.624 µM.
